For 9 molecules, IC50 results are on record in BindingDB's records for PubMed 35073486 (The University of Queensland, 2022).

SMILES strings stand for the structures.

One series can be described thus: Inhibition of P-gp mediated doxorubicin resistance in human SW620/AD300 cells overexpressing P-gp in presence of doxorubicin measured after 52 hrs by MTT assay. For orientation: Tetrazolium assays rely on reduction of a dye to a coloured formazan, in cell work by metabolically active cells.
In general, IC50 refers to the concentration needed to halve the response being measured. As for `C[C@H]1O[C@H](CC(=O)O)Cc2c1c(O)c1c3c(c4n(c23)[C@@H]([C@@H](C)O)CC4)C=CC1=O`, the IC50 came out at 1530 nM.
In the case of `C[C@H]1O[C@]2(C)CC(=O)O[C@]2(C)c2c1c(O)c1c3c(c4n(c23)[C@@H]([C@@H](C)O)CC4)C=CC1=O`, the IC50 came to 7580 nM.
Same read-out and setting: the value for `COC(=O)C[C@H]1Cc2c(c(O)c3c4c(c5n(c24)[C@H]([C@@H](C)O)CC5)C=CC3=O)[C@H](C)O1` was 1200 nM; that for `C[C@@H]1OC(CC(=O)O)=Cc2c1c(O)c1c3c(c4n(c23)[C@H]([C@@H](C)O)CC4)C=CC1=O` was 1010 nM; that for `C[C@H]1OC(CC(=O)O)=Cc2c1c(O)c1c3c(c4n(c23)[C@H]([C@@H](C)O)CC4)C=CC1=O` was 1440 nM.
The same measure, in the same setting: the same measure for `C[C@@H]1O[C@@H](CC(=O)O)C(=O)c2c1c(O)c1c3c(c4n(c23)[C@H]([C@@H](C)O)CC4)C=CC1=O`: 1480 nM; for `C[C@@H](O)[C@@H]1CCc2c3c4c(c(O)c(O)c(C[C@@H](O)CC(=O)O)c4n21)C(=O)C=C3`: 4490 nM.
The same measure, in the same setting: the same measure for `C[C@H]1Oc2c(O)c3c4c(c5n(c4c2C[C@H](CC(=O)O)O1)[C@H]([C@@H](C)O)CC5)C=CC3=O`: 5040 nM.

The next series is described as follows: Inhibition of P-gp mediated doxorubicin resistance in human SW620/AD300 cells overexpressing P-gp measured after 48 hrs by MTT assay.
As for `COc1cccc2c1C(=O)c1c(O)c3c(c(O)c1C2=O)C[C@@](O)(C(=O)CO)C[C@@H]3O[C@H]1C[C@H](N)[C@H](O)[C@H](C)O1` [Adriamycin], the IC50 worked out at 5750 nM.
